The values that follow come from ChEMBL document CHEMBL5344418, “Recent developments in antimalarial activities of 4-aminoquinoline derivatives” (Eur J Med Chem, 2023).

In series [1] the test system is Plasmodium falciparum. The series is described as follows: Antimalarial activity against Plasmodium falciparum K1 assessed as reduction in parasitic growth incubated for 48 hrs by Giemsa-staining counting based microscopic analysis. It is filed as functional, organism-based. The following applies: K1, 48 h.
The test system of series [2] is Plasmodium falciparum. In words: Antimalarial activity against Plasmodium falciparum 3D7 assessed as reduction in parasite growth incubated for 48 hrs by Giemsa-staining counting based microscopic analysis. The class given is functional, organism-based. The following applies: 3D7, 48 h.
Series [3] in a line: Cytotoxicity against African green monkey Vero cells assessed as reduction in cell viability incubated for 48 hrs by MTT assay. The class given is toxicity, cell-based. Particulars: chlorocebus sabaeus.
The nature of series [4]: Cytotoxicity against African monkey Vero cells assessed as reduction in cell viability incubated for 72 hrs by MTT assay. Particulars: chlorocebus sabaeus. The class given is toxicity, cell-based.
In series [5] the test system is Plasmodium falciparum. The series is described as follows: Antiplasmodial activity against Plasmodium falciparum NF54. The class given is functional, organism-based.
A short description of series [6]: Cytotoxicity against African green monkey Vero cells by MTT assay. The following applies: African green monkey (Chlorocebus sabaeus). It is filed as toxicity, cell-based.
In series [7] the test system is Plasmodium falciparum. In words: Antimalarial activity against Plasmodium falciparum assessed as reduction in parasite growth incubated for 48 hrs by Giemsa staining based analysis. It is filed as functional, organism-based.
Series [8] deals with Plasmodium falciparum. In words: Antimalarial activity against Plasmodium falciparum Dd2 assessed as reduction in parasitic growth. It is filed as functional, organism-based.
Series [9] has as its system Plasmodium falciparum. The series is described as follows: Antiplasmodial activity against Plasmodium falciparum 3D7 assessed as inhibition of parasitic growth. The class given is functional, organism-based.
A further series deals with Plasmodium berghei. The series is described as follows: Antimalarial activity against Plasmodium berghei ANKA. It is filed as functional, organism-based.
Series [10] has as its system Plasmodium falciparum. In words: Antimalarial activity against Plasmodium falciparum D6 assessed as reduction in parasite growth incubated for 48 hrs by LDH assay. The class given is functional, organism-based. Particulars: D6, 48 h.
Series [11] can be described thus: Cytotoxicity against African green monkey Vero cells. The following applies: chlorocebus sabaeus. It is filed as toxicity, cell-based.
Series [12] deals with Plasmodium falciparum. In words: Antimalarial activity against Plasmodium falciparum W2 assessed as reduction in parasite growth incubated for 48 hrs by LDH assay. It is filed as functional, organism-based. The following applies: W2, 48 h.
In series [13] the test system is Plasmodium falciparum. The series is described as follows: Antimalarial activity against chloroquine-resistant Plasmodium falciparum W2 assessed as growth inhibition incubated for 48 hrs by flow cytometry based analysis. The class given is functional, organism-based. Particulars: W2, 48 h.
For series [14], the system named is Plasmodium falciparum. The series is described as follows: Antimalarial activity against Plasmodium falciparum assessed as parasitic growth inhibition. It is filed as functional, organism-based.
Series [15] deals with Plasmodium falciparum. In words: Antiplasmodial activity against Plasmodium falciparum Dd2 assessed as reduction in parasitic growth incubated for 48 hrs by SYBR Green staining based fluorescence analysis. It is filed as functional, organism-based. The following applies: Dd2, 48 h.
Series [16] deals with Plasmodium falciparum. In words: Antimalarial activity against chloroquine-sensitive Plasmodium falciparum 3D7 assessed as reduction in parasite growth incubated for 48 hrs by SYBR green assay. It is filed as functional, organism-based. The following applies: 3D7, 48 h.
In series [17] the test system is Plasmodium falciparum. In words: Antimalarial activity against multi-drug resistant Plasmodium falciparum K1 assessed as reduction in parasite growth incubated for 48 hrs by SYBR green assay. The class given is functional, organism-based. Particulars: K1, 48 h.
The subject of another series is HepG2. In words: Cytotoxicity against human HepG2 cells assessed as reduction in cell viability incubated for 24 hrs by MTT assay. It is filed as functional.
Series [18] has as its system Plasmodium falciparum. In words: Antimalarial activity against chloroquine-sensitive Plasmodium falciparum 3D7 by SYBR green I assay. The class given is functional, organism-based.
The test system of series [19] is Plasmodium falciparum. The series is described as follows: Antimalarial activity against chloroquine-resistant Plasmodium falciparum Dd2 assessed as reduction in parasitic growth incubated for 72 hrs by Giemsa-staining based microscopic analysis. The class given is functional, organism-based. Particulars: Dd2, 72 h.
For series [20], the system named is Plasmodium falciparum. In words: Antimalarial activity against chloroquine-sensitive Plasmodium falciparum NF54 assessed as reduction in cell growth. It is filed as functional, organism-based.

Turning to `CCOC(=O)c1nn(CCNc2ccnc3cc(Cl)ccc23)c2c1C(C(C)C)C(C#N)=C(N)O2` (stereo not drawn), the EC50 in the series on Plasmodium falciparum [1] amounted to 300 nM; with Plasmodium falciparum [2], 3390 nM. Moreover, the CC50 at 48 h in [3] came out at 86100 nM.
As to `CCN(CC)CCCC(C)Nc1ccnc2cc(Cl)ccc12` (stereo not drawn) [CHLOROQUINE], the figures for the EC50 with Plasmodium falciparum [1] and in the series on Plasmodium falciparum [2] were 330 nM and 2 nM, respectively. Moreover, the CC50 at 72 h in series [4] turned out to be 86800 nM.
Take `CC1(C)c2ccccc2-c2cc(Cl)c(NC(=O)C(=O)NCCCNc3ccnc4cc(Cl)ccc34)cc21`: the IC50 in the series on Plasmodium falciparum [5] stood at 326 nM; in series [6], 17700 nM.
Consider `Clc1ccc2c(Nc3nc[nH]n3)ccnc2c1`, for which the IC50 in the series on Plasmodium falciparum [7] was 42600 nM.
Regarding `N#Cc1ccc2c(CNCCCNc3ccnc4cc(Cl)ccc34)csc2c1`, the IC50 in the series on Plasmodium falciparum [8] is 18.6 nM; in the series with Plasmodium falciparum [9], 50.2 nM.
Take `C[C@H](Cc1ccccc1)Nc1ccnc2cc(Cl)ccc12`: the IC50 in the series on Plasmodium berghei was 490 nM.
In the case of `O=C(NCCCNc1ccnc2cc(Cl)ccc12)C(=O)Nc1cc2c(cc1Cl)-c1ccccc1C2`, the figures for the half-maximal inhibitory concentration (IC50) (in the series with Plasmodium falciparum [5]; in series [6]) were 437 nM and 26000 nM, respectively.
Regarding `N=C(N=C(N)N)SCCCCNc1cc(C(F)(F)F)nc2c(C(F)(F)F)cccc12`, the IC50 with Plasmodium falciparum [10] and with Plasmodium falciparum [12] was above 8930 nM each time. Moreover, the CC50 in [11] is above 8930 nM.
Consider `O=C(CNCCCNc1ccnc2cc(Cl)ccc12)Nc1cc2c(cc1Cl)-c1ccccc1C2`, for which the IC50 with Plasmodium falciparum [5] came out at 346 nM; in series [6] it was 11200 nM.
Turning to `C[C@@H]1CC[C@H]2[C@@H](C)C(=O)O[C@@H]3O[C@@]4(C)CC[C@@H]1[C@]32OO4` [ARTEMISININ], the IC50 in the series with Plasmodium falciparum [13] stood at 5 nM. The EC50 in the series with Plasmodium falciparum [1] and with Plasmodium falciparum [2] was 1 nM throughout. Besides, the CC50 at 48 h in series [3] turned out to be 435000 nM.
Compound `N=C(N=C(N)N)SCCCNc1ccnc2cc(Cl)ccc12` had a CC50 in series [11] above 11400 nM. The IC50 in the series with Plasmodium falciparum [12] was 2130 nM.
For the compound `CC(CCCNCc1ccc(-c2csc3ccc(F)cc23)cc1)Nc1ccnc2cc(Cl)ccc12` (stereo not drawn), the IC50 with Plasmodium falciparum [8] came to 187 nM; with Plasmodium falciparum [9] it was 82.3 nM.
`Clc1ccc2c(Nc3cccnc3)ccnc2c1`: the IC50 in the series on Plasmodium falciparum [14] worked out at 4350 nM.
On to `N=C(N=C(N)N)SCCNc1cc(C(F)(F)F)nc2c(C(F)(F)F)cccc12`, for which the IC50 in the series with Plasmodium falciparum [10] is 7550 nM; in the series on Plasmodium falciparum [12] it was 8040 nM. In addition, in series [11], the CC50 is above 9420 nM.
With `O=C(CNCCCNc1ccnc2cc(Cl)ccc12)Nc1cc2c(cc1Cl)-c1ccccc1C21CCCC1`, the IC50 with Plasmodium falciparum [5] was 204 nM; in [6] it was 12500 nM.
Take `CCOC(=O)c1nn(CCNc2ccnc3cc(Cl)ccc23)c2c1C(c1ccco1)C(C#N)=C(N)O2` (stereo not drawn): the concentration for a half-maximal effect (EC50) in the series on Plasmodium falciparum [1] was found to be 1610 nM; in the series on Plasmodium falciparum [2], 113 nM. Further, the CC50 at 48 h in series [3] turned out to be 84500 nM.
As for `N=C(N=C(N)N)SCCCNc1cc(C(F)(F)F)nc2c(C(F)(F)F)cccc12`, the IC50 in the series with Plasmodium falciparum [10] is 5540 nM; with Plasmodium falciparum [12] it was 7210 nM. For the same compound, the CC50 in series [11] is above 9170 nM.
Regarding `COc1ccc2nc(/C=C/c3ccncc3)cc(N3CCN(CCO)CC3)c2c1`, the concentration for half-maximal inhibition (IC50) in the series with Plasmodium falciparum [15] is above 10000 nM.
Take `Clc1ccc2c(NC3Cc4ccccc4C3)ccnc2c1`: the IC50 in the series with Plasmodium berghei is 600 nM.
Regarding `CC1=NC(=S)N(Nc2ccnc3cc(Cl)ccc23)C(=O)C1`, in the series with Plasmodium falciparum [7], the half-inhibitory concentration (IC50) stood at 11900 nM.
For the compound `CN(CCCCCCCCNc1ccnc2ccccc12)Cc1ccc(-c2ccc(-c3ccc(C#N)cc3)s2)cc1`, the IC50 was determined as 71.5 nM in the series with Plasmodium falciparum [8] and 120 nM in the series with Plasmodium falciparum [9].
For `COc1ccc2nc(/C=C/c3ccncc3)cc(N3CCCC3)c2c1`, in the series with Plasmodium falciparum [15], the IC50 stood at 367 nM.
For `CCOC(=O)c1nn(CCNc2ccnc3cc(Cl)ccc23)c2c1C(c1ccccc1)C(C#N)=C(N)O2` (stereo not drawn), the 50% effective concentration (EC50) with Plasmodium falciparum [1] amounted to 250 nM; in the series with Plasmodium falciparum [2], 190 nM. Further, in [3], the CC50 at 48 h is 103000 nM.
In the case of `CCN(CC)CC#CCNc1ccnc2cc(Cl)ccc12`, the results for the IC50 in the series on Plasmodium falciparum [16] and in the series with Plasmodium falciparum [17] were 46 nM and 50 nM, respectively. Also, the MLD50 in the series with HepG2 was 1481 µM.
As to `CCCC(=O)NCCCC(C)Nc1ccnc2cc(Cl)ccc12` (stereo not drawn), the IC50 in the series on Plasmodium falciparum [18] was 627 nM; in the series on Plasmodium falciparum [19], 588000 nM.
With `C#Cc1ccc(-c2cn(CCNc3ccnc4cc(Cl)ccc34)nn2)cc1F`, the IC50 in the series with Plasmodium falciparum [20] came out at 150 nM.
For `CCCCCCCC(=O)NCCCC(C)Nc1ccnc2cc(Cl)ccc12` (stereo not drawn), the IC50 in the series on Plasmodium falciparum [18] turned out to be 51 nM; with Plasmodium falciparum [19] it was 109000 nM.
Take `Clc1ccc2c(NCCNCc3csc4ccccc34)ccnc2c1`: the IC50 in the series on Plasmodium falciparum [8] is 14.4 nM; in the series with Plasmodium falciparum [9], above 500 nM.
